Values of other authors, collected in patent US20010001790A1, “TOPICAL FORMULATIONS COMPRISING SKIN PENETRATION AGENTS AND THE USE THEREOF” (priority 1999, published 2001).

Conditions: propylene glycol vehicle; upon addition of cetyl alcohol at 3% by weight

CC1(C)O[C@@H]2C[C@H]3[C@@H]4CCC5=CC(=O)C=C[C@]5(C)[C@@]4(F)[C@@H](O)C[C@]3(C)[C@]2(C(=O)CO)O1 [triamcinolone acetonide]
reduction of skin penetration of the pharmaceutically active agent: 39%
